Laboratory results from patent publication US4024263A, “1,3-Dihydrospiro[isobenzofuran-1,4'-piperidine]s” (American Hoechst Corporation, priority 1975, dated 1977).
Read-outs that look alike come from different tables or passages of the source.

Columns and labels:
[1] = tested on: tetrabenzazine-induced depression; test: inhibition of tetrabenzazine-induced depression (ptosis), antidepressant activity; assay type: in vivo, mice; conditions: Mus musculus, ip, read-out: Antidepressant ED50 (50% inhibition of ptosis of tetrabenzazine-induced depression)
Excerpt: (§1) The results are expressed in ED50 's (intraperitoneal dose effecting a 50% inhibition of ptosis of tetrabenzazine-induced depression in mice). The doses are in mg/kg of body weight. […] The toxicity data is expressed in ALD50 's (the acute lethal intraperitoneal dose, mg/kg of body weight, in 50% of the mice tested).

[2] = acute lethal toxicity (ALD50); conditions: mouse, in vivo, ip; intraperitoneal, groups of four mice; read-out: Toxicity ALD50 (acute lethal dose in 50% of the mice tested)
Excerpt: as §1

[3] = tested on: 2-phenyl-1,4-quinone-induced writhing; test: 2-phenyl-1,4-quinone-induced writhing assay (analgesia); assay type: in vivo; conditions: 50 mg/kg of body weight oral dose, mice
Excerpt: Exptl. Biol. Med., Vol. 45, 729 (1957)].

[4] = tested on: supra maximal electro shock; test: protection from supra maximal electro shock, anticonvulsant activity (method of Woodbury and Davenport); assay type: in vivo; conditions: intraperitoneal dose of about 5 mg/kg of body weight
Description: The compounds of the invention are useful as anticonvulsant agents for mammals, as determined by the method of Woodbury, L. A. and Davenport, V. D., in Arch. Int. Pharmacodynam, Vol. 92, (1952) at pages 97-107. For example, 1'-amino-1,3-dihydro-3-phenylspiro[isobenzofuran-1,4'-piperidine]at an intraperitoneal dose of about 5 mg/kg of body weight produced a 50% protection from the effect of a supra maximal electro shock. This datum illustrates the utility of the compounds of the invention for the treatment of convulsion in mammals when administered in amounts ranging from 0.1 to 50 mg/kg of body weight per day.

Structure (SMILES)	ED50 ([1]; intraperitoneal, mice)	LD50 [2]	inhibition of writhing [3]	protection from the effect of a supra maximal electro shock [4]	ED50 [1]
COc1ccc2c(c1)C1(CCN(O)CC1)OC2c1ccccc1 (stereo not drawn) [Example 10, 1'-hydroxy-1,3-dihydro-6-methoxy-3-phenylspiro[isobenzofuran-1,4'-piperidine]]	3.2 mg/kg	> 562 mg/kg			
NN1CCC2(CC1)OC(c1ccccc1)c1ccccc12 (stereo not drawn) [Example 2, 1'-amino-1,3-dihydro-3-phenylspiro[isobenzofuran-1,4'-piperidine]]	10.3 mg/kg	100 mg/kg	53%	50%	
[O-][N+]1(Cc2ccccc2)CCC2(CC1)OC(c1ccccc1)c1ccccc12 (stereo not drawn) [Example 13, 1'-benzyl-1,3-dihydro-3-phenylspiro[isobenzofuran-1,4'-piperidine]-1'-oxide]			48%		
ON1CCC2(CC1)OC(c1ccccc1)c1ccccc12 (stereo not drawn) [Example 8, 1'-hydroxy-1,3-dihydro-3-phenylspiro[isobenzofuran-1,4'-piperidine]]	1.4 mg/kg	> 562 mg/kg	53%		
COc1ccc(C2OC3(CCN(O)CC3)c3ccccc32)cc1 (stereo not drawn) [Example 9, 1'-hydroxy-1,3-dihydro-3-(4-methoxyphenyl)spiro[isobenzofuran-1,4'-piperidine]]	2.6 mg/kg	> 562 mg/kg			
O=C(ON1CCC2(CC1)OC(c1ccccc1)c1ccccc12)c1ccccc1 (stereo not drawn) [Example 4, 1'-benzoyloxy-1,3-dihydro-3-phenylspiro[isobenzofuran-1,4'-piperidine]]			54%		
C[N+]1([O-])CCC2(CC1)OC(c1ccccc1)c1ccccc12 (stereo not drawn) [Example 12, 1,3-dihydro-1'-methyl-3-phenylspiro[isobenzofuran-1,4'-piperidine]-1'-oxide]		280 mg/kg			6.5 mg/kg
ON1CCC2(CC1)OC(c1ccc(F)cc1)c1ccccc12 (stereo not drawn) [Example 11, 1'-hydroxy-1,3-dihydro-3-(4-fluorophenyl)spiro[isobenzofuran-1,4'-piperidine]]	4 mg/kg	316 mg/kg			
CC(C)NN1CCC2(CC1)OC(c1ccccc1)c1ccccc12 (stereo not drawn) [Example 3, 1'-(isopropylamino)1,3'-dihydro-3-phenylspiro[isobenzofuran-1,4'-piperidine]]			27%		
